Assay results from article PMC7230911, “Meroterpenoids from the Brown Alga Cystoseira usneoides as Potential Anti-Inflammatory and Lung Anticancer Agents” (Marine Drugs, 2020).

Key:
iNOS = iNOS protein expression in LPS-stimulated THP-1 macrophages (western blot); type: cell-based, human; conditions: 8 μg/mL, LPS-stimulated THP-1 cells
Experimental: COX-2 is the key enzyme regulating the production of prostaglandins, which are the central mediators of inflammation. On the other hand, iNOS enzyme represents an important molecular target closely involved in inflammatory responses. Thus, the effect of the AMTs 1–8 on LPS-induced COX-2 and iNOS protein expression was investigated by western blot analysis.
Figure 3 Effect of meroterpenoids 1–8 on LPS-induced COX-2 and iNOS protein expression in THP-1 macrophages. Cells were pretreated for 1 h with the compounds (1, 2, 3, 4, 7, and 8 at 8 μg/mL; 5 and 6 at 4 μg/mL) and then stimulated with LPS (1 μg/mL). Cytosolic lysates from 24 h-stimulated cells were separated on 10% SDS-PAGE. COX-2, iNOS, and β-actin were detected by western blot analysis. Data are expressed as means ± SE from three independent experiments. Statistical significance is indicated (+++ p < 0.001 and ++ p < 0.01, vs. Control, respectively; * p < 0.05, and ** p < 0.01 vs. Control + LPS).
Western blotting was used to measure the protein levels of COX-2 and iNOS [65]. […] Proteins concentration in cell lysates was determined by Bio-Rad Protein Assay, based on the method of Bradford (BioRad, Richmond CA, USA). […] The protein band densities were quantified using a Scientific Imaging Systems (Biophotonics ImageJ Analysis Software, National Institute of Mental Health, Bethesda, MD, USA).

colitis = system: colitis; parameters: method as in PMID 27527191; conditions: down-regulating TNF-α, IL-1ß, IL-10, suppressing COX-2 and iNOS expression in mouse colon tissue; cited from earlier work
[1] = Cytotoxicity against normal lung cells MRC-5 (MTT assay); type: cell-based, human; conditions: human, MRC-5 fetal lung fibroblast cells, 50 μg/mL, 72 h, read-out: cell viability of normal cells
Experimental: The effect of the AMTs 1–8 on cell viability was investigated in the human lung cancer cell line A549. […] It has been reported that compounds with SI value higher or equal to 2.0 are potentially selective. […] It is worth noting that after treatment with 50 μg/mL of these two AMTs, the cell viability was lower than 15% for cancer cells and higher than 55% for normal cells.
Figure 4 Effects of different concentrations of meroterpenoids 1–8 on the viability of human lung cancer cell line A549 and the human fetal lung fibroblastic MRC-5 cells, using MTT assay after 72 h of treatment. Data are mean ±SE of three independent experiments. * p < 0.05, ** p < 0.01 and […] between the two cell lines.
Cell proliferation was evaluated by a modified MTT assay, which measures the mitochondrial dehydrogenase activity. A total of 5 × 10^3 cells/well (MRC-5 cells) and 3 × 10^3 cells/well (A549 cells) were cultured in a 96-well plate for 24 h. Then, treatments were added to the cell culture. After 72 h of incubation, the medium was removed and 125 µL of MTT (1 mg/mL in medium) was added to each well and incubated for 4 h. Next, 80 µL of 20% sodium dodecyl sulphate (SDS) was added and incubated for 5 h at 37 °C. The optical density of each well was measured at 540 nm (Synergy HT multiwell plate spectrophotometer reader, BioTek Instruments Inc., Winooski, VT, USA) to quantify cell viability. Cell viability (%) was calculated according to the following formula: % viability = (absorbance of compounds treated cells/absorbance of control cells) × 100. The degree of selectivity of the compounds was expressed by its SI value. Each SI value was calculated using the formula: SI = IC50 normal cell/IC50 cancer cell.

| Structure (SMILES) | effect on iNOS (in words) (iNOS) | in vivo effect in colitis (in words) (colitis) | viability at 72 h, 50 µg/mL [1] [%] |
| --- | --- | --- | --- |
| COc1c(C)cc(O)cc1C/C=C(\C)CC(=O)/C=C(\C)CCCC(C)(O)C(=O)/C=C/C(C)(C)O (stereo not shown) [Compound 2, 11-hydroxy-1’-O-methylamentadione] | significantly inhibited | intestinal anti-inflammatory activity in colitis | – |
| COc1c(C)cc(O)cc1C/C=C(\C)CC(=O)/C=C(\C)CCCC(C)=O [Compound 3, cystomexicone B] | – | – | > 55 |
| COc1c(C)cc(O)cc1C/C=C(\C)CC(=O)/C=C(/C)CCCC(C)=O [Compound 4, cystomexicone A] | – | – | > 55 |
